Measurements reported in patent US9073961B2, “Substitution derivatives of N6 -benzyladenosine-5′-monophosphate, methods of preparation thereof, use thereof as medicaments, and therapeutic preparations containing these compounds” (UNIVERZITA PALACKEHO V OLOMOUCI, priority 2010, dated 2015).

Legend:
[1] = test system: HOS (human osteogenic sarcoma); experiment: Calcein AM cytotoxicity assay, HOS; assay type: cell-based; conditions: 72 hours incubation
From the text: (§1) Because toxic compounds negatively influence metabolic processes in cells, many standard cytotoxicity assays are based on measurement of metabolisation rate of various artificial substrates. Resulting product is then quantified e.g. by means of spectrometry. The assays can be easily modified for use in 96-well plates. For evaluation of cytotoxic effect of the novel substituted 9-substituted cytokinin derivatives of this invention, a microtiter assay based on quantification of metabolisation of Calcein AM was used. The assay is widely used in drug screening programs and in chemosensitivity testing. In the living cells, Calcein AM is enzymatically hydrolysed and accumulation of resulting calcein is manifested by green fluorescence.
(§2) In the routine screening the following cell lines have been used: CEM (T-lymphoblastoid leukemia), HL-60 (promyelocytic leukemia), K-562 (human erythroleukemia), MCF-7 (breast carcinoma), HOS (human osteogenic sarcoma), and G-361 (human malignant melanoma). Normal human fibroblasts BJ were used as a control for routine screening of the compounds. The cells were kept in Nunc/Corning 80 cm^2 plastic bottles and grown in cell culture medium (DMEM containing 5 g/l glucose, 2 mM glutamine, 100 U/ml penicilline, 100 μg/ml streptomycine, 10% fetal bovine serum and sodium hydrogencarbonate), the compounds were prepared according to the procedure of the present invention.
(§3) The cell suspensions were prepared and diluted according to the particular cell type and the expected target cell density (2.500-30.000 cells per well based on cell growth characteristics) and pippetted (80 μl) into 96-well plates. Inoculates were allowed a pre-incubation period of 24 hours at 37° C. and 5% CO2 for stabilisation. Tested compound was added in total volume of 20 μl of water at time zero. Usually, test compound was evaluated at six 3-fold dilutions. In routine testing, the highest concentration tested was 166.7 μM. All drug concentrations were tested in triplicates. Incubations of cells with the test compounds lasted for 72 hours at 37° C., in 5% CO2 atmosphere and 100% humidity. At the end of incubation period Calcein AM in PBS was added into final concentration of 1 μg/ml. After another 1 hour of incubation fluorescence (FD) was measured with the Labsystem FIA Reader Fluoroscan Ascent (Microsystems). Tumor cell survival (TCS) was estimated using the following equation: […]=(FDdrug exposed well/FDcontrol well)×100%. The GI50 value, the drug concentration causing 50% reduction of esterase activity, was calculated from the obtained dose response curves (FIG. 1).
(§4) Cytoxicity of novel compounds was tested on panel of cell lines of different histogenetic and species origin (Table 3). […] The effective novel derivatives killed tumour cells in concentrations close to 0.1-50 μM.

MCF-7 (breast carcinoma) = experiment: Calcein AM cytotoxicity assay, MCF7; assay type: cell-based; conditions: 72 hours incubation
From the text: as §1, §2, §3, §4

[2] = test system: cytokinin-dependent tobacco callus Nicotiana tabacum L. cv. Wisconsin 38; experiment: Growth of cytokinin-dependent tobacco callus; assay type: cell-based; conditions: for Activity (%) [10^−5 mol · l^−1 KR = 100%]: at concentration with highest activity, relative to control cytokinin; for Concentration with highest activity: tobacco callus fresh weight after four weeks
Experimental: Cytokinin effect of newly prepared derivatives was tested using cytokinin-dependent tobacco callus. The cytokinin-dependent tobacco callus Nicotiana tabacum L. cv. Wisconsin 38 was maintained at 25° C. in darkness on modified MS medium, containing per 1 liter: 4 μmol of nicotinic acid, 2.4 μmol of pyridoxine hydrochloride, 1.2 μmol of thiamine, 26.6 μmol of glycine, 1.37 μmol of glutamine, 1.8 μmol of myo-inositol, 30 g of sucrose, 8 g of agar, 5.37 μmol of NAA and 0.5 μmol of the compound tested. Subcultivation was carried out every three weeks. Fourteen days before the bioassay, the callus tissue was transferred to the media without 6-benzylaminopurine. The biological activity was determined from the increase of the fresh callus weight after four weeks of cultivation. Five replicates were prepared for each concentration of the compound tested and the entire test was repeated twice. […] The compounds to be tested were dissolved in dimethylsulfoxide (DMSO) and the solution brought up to 10^−3 M with distilled water. […] The stimulatory activity was calculated from the dose-dependent fresh weight callus growth curves.
From the obtained data, the concentration with the highest activity was selected for each compound tested. Relative activity of the compound at this concentration was calculated (Table 5). […]

[3] = test system: CEM (T-lymphoblastoid leukemia); experiment: Calcein AM cytotoxicity assay, CEM; assay type: cell-based; conditions: 72 hours incubation, Calcein AM
From the text: as §1, §2, §3, §4

[4] = test system: HL-60 (promyelocytic leukemia); experiment: Calcein AM cytotoxicity assay, HL60; assay type: cell-based, human; conditions: 72 hours incubation
From the text: as §1, §2, §3, §4

[5] = test system: Normal human fibroblasts BJ; experiment: Calcein AM cytotoxicity assay, BJ; assay type: cell-based; conditions: 72 hours incubation
From the text: as §1, §2, §3, §4

[6] = test system: K-562 (human erythroleukemia); experiment: Calcein AM cytotoxicity assay, K-562; assay type: cell-based; conditions: 72 hours incubation
From the text: as §1, §2, §3, §4

SMILES | GI50 [1] [µM] | GI50 (MCF-7 (breast carcinoma)) [µM] | Activity (%) [10^−5 mol · l^−1 KR = 100%] [2] [%] | Concentration with highest activity [2] | GI50 [3] [µM] | GI50 [4] [µM] | GI50 [5] [µM] | GI50 [6] [µM]
O=P(O)(O)OC[C@H]1O[C@@H](n2cnc3c(NCc4cc(F)cc(F)c4)ncnc32)[C@H](O)[C@@H]1O [Compound 37, 6-(3,5-difluorobenzylamino)purine riboside-5′-monophosphate] | > 167 | > 167 | 105 ± 3 | 10^−6 mol · l^−1 | 24.5 | 9.1 | > 167 | > 167
O=P(O)(O)OC[C@H]1O[C@@H](n2cnc3c(NCc4cccc(Br)c4)ncnc32)[C@H](O)[C@@H]1O [Compound 8, 6-(3-bromoobenzylamino)purine riboside-5′-monophosphate] | > 167 | > 167 | 102 ± 11 | 10^−6 mol · l^−1 | 5 | 8 | > 167 | 19.7
O=P(O)(O)OC[C@H]1O[C@@H](n2cnc3c(NCc4cc(F)c(F)cc4F)ncnc32)[C@H](O)[C@@H]1O [Compound 39, 6-(2,4,5-trifluorobenzylamino)purine riboside-5′-monophosphate] | – | – | 105 ± 3 | 10^−5 mol · l^−1 | – | – | – | –
COc1ccc(CNc2ncnc3c2ncn3[C@@H]2O[C@H](COP(=O)(O)O)[C@@H](O)[C@H]2O)c(OC)c1 [Compound 32, 6-(2,4-dimethoxybenzylamino)purine riboside-5′-monophosphate] | > 167 | > 167 | – | – | > 167 | 39 | > 167 | > 167
O=P(O)(O)OC[C@H]1O[C@@H](n2cnc3c(NCc4ccc(Br)cc4)ncnc32)[C@H](O)[C@@H]1O [Compound 9, 6-(4-bromobenzylamino)purine riboside-5′-monophosphate] | > 167 | > 167 | – | – | 20.6 | 47.7 | > 167 | 68.2
O=P(O)(O)OC[C@H]1O[C@@H](n2cnc3c(NCc4ccc(Cl)cc4Cl)ncnc32)[C@H](O)[C@@H]1O [Compound 24, 6-(2,4-dichlorobenzylamino)purine riboside-5′-monophosphate] | > 167 | 127 | – | – | 86.7 | 96.3 | > 167 | 85.7
COc1cc(CNc2ncnc3c2ncn3[C@@H]2O[C@H](COP(=O)(O)O)[C@@H](O)[C@H]2O)cc(OC)c1 [Compound 34, 6-(3,5-dimethoxybenzylamino)purine riboside-5′-monophosphate] | > 167 | > 167 | – | – | – | 18.8 | > 167 | > 167
O=P(O)(O)OC[C@H]1O[C@@H](n2cnc3c(NCc4ccc(F)cc4F)ncnc32)[C@H](O)[C@@H]1O [Compound 36, 6-(2,4-difluorobenzylamino)purine riboside-5-monophosphate] | > 167 | > 167 | – | – | 7.1 | 3.4 | > 167 | 7.4
O=P(O)(O)OC[C@H]1O[C@@H](n2cnc3c(NCc4ccccc4Br)ncnc32)[C@H](O)[C@@H]1O [Compound 7, 6-(2-bromobenzylamino)purine riboside-5′-monophosphate] | > 167 | > 167 | 100 ± 4 | 10^−5 mol · l^−1 | 12.3 | 6.6 | > 167 | 10
O=P(O)(O)OC[C@H]1O[C@@H](n2cnc3c(NCc4c(F)ccc(F)c4F)ncnc32)[C@H](O)[C@@H]1O [Compound 40, 6-(2,3,6-trifluorobenzylamino)purine riboside-5′-monophosphate] | > 167 | > 167 | – | – | – | 13 | > 167 | > 167
O=P(O)(O)OC[C@H]1O[C@@H](n2cnc3c(NCc4ccc(F)cc4Cl)ncnc32)[C@H](O)[C@@H]1O [2-chloro-4-fluorobenzylamino, 6-(2-chloro-4-fluorobenzylamino)purine riboside-5′-monophosphate] | > 167 | > 167 | 108 ± 4 | 10^−5 mol · l^−1 | 20.9 | 9 | > 167 | 11.7
O=P(O)(O)OC[C@H]1O[C@@H](n2cnc3c(NCc4ccc(F)c(Cl)c4)ncnc32)[C@H](O)[C@@H]1O [Compound 41, 6-(3-chloro-4-fluorobenzylamino)purine riboside-5′-monophosphate] | > 167 | > 167 | 107 ± 4 | 10^−6 mol · l^−1 | 3.4 | 3.5 | > 167 | 4.1
COc1ccc(CNc2ncnc3c2ncn3[C@@H]2O[C@H](COP(=O)(O)O)[C@@H](O)[C@H]2O)cc1O [Compound 30, 6-(3-hydroxy-4-methoxybenzylamino)purine riboside-5′-monophosphate] | > 167 | > 167 | – | – | 79.3 | 68.9 | > 167 | > 167
COc1cccc(CNc2ncnc3c2ncn3[C@@H]2O[C@H](COP(=O)(O)O)[C@@H](O)[C@H]2O)c1OC [Compound 31, 6-(2,3-dimethoxybenzylamino)purine riboside-5′-monophosphate] | > 167 | > 167 | – | – | > 167 | 109 | > 167 | > 167
O=P(O)(O)OC[C@H]1O[C@@H](n2cnc3c(NCc4ccc(Cl)c(Cl)c4)ncnc32)[C@H](O)[C@@H]1O [Compound 25, 6-(3,4-dichlorobenzylamino)purine riboside-5-monophosphate] | > 167 | 88.8 | – | – | 3 | 1.1 | > 167 | 6.5
O=P(O)(O)OC[C@H]1O[C@@H](n2cnc3c(NCc4ccc(F)c(F)c4F)ncnc32)[C@H](O)[C@@H]1O [Compound 38, 6-(2,3,4-trifluorobenzylamino)purine riboside-5′-monophosphate] | > 167 | > 167 | – | – | 58.2 | 13 | > 167 | > 167
